Measurements reported in patent publication US11072634B2, “Inhibitors of transglutaminases” (Zedira GmbH, priority 2016, dated 2021).
Where a SMILES comes first, the peptide text is derived from it. [ ]: non-standard residue; d: D form. The star is where a group is joined. Nle(5,6-dioxo,6-NHMe) = CNC(=O)C(=O)CC[C@H](N)C(=O)O; Isopropoxycarbonyl = CC(C)OC(=O)*; Hyp = O=C(O)[C@@H]1C[C@@H](O)CN1; Aib = CC(C)(N)C(=O)O

Biological target: T1, recombinant human tissue transglutaminase (rhTG2) (Homo sapiens, UniProt P21980)
T1 construct: purchased Zedira 1022 (so in the source); T022)
T1 sequence (P21980 1-687): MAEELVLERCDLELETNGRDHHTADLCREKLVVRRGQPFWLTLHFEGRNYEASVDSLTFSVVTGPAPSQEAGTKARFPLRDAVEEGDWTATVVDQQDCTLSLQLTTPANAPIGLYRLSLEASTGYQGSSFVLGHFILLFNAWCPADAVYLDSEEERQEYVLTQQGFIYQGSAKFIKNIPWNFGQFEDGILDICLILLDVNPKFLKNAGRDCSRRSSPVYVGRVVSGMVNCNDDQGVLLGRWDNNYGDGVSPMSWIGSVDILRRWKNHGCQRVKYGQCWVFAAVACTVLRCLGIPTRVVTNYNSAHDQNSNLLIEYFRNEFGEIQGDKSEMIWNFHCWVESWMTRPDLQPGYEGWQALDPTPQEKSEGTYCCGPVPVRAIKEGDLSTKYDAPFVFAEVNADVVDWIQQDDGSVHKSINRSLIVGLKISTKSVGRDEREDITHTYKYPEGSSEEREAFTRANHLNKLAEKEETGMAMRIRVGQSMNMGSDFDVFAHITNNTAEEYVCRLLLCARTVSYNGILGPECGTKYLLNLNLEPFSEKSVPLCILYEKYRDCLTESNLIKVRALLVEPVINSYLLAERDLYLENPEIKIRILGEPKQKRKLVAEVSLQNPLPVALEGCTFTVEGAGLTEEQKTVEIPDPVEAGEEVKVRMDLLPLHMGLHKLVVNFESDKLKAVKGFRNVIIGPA
Test: Inhibition of rec. human tissue transglutaminase (fluorescence, Abz-APE(CAD-DNP)QEA-OH)
Assay type: biochemical
Conditions: Table 2, TG2 inhibitors
Method: Method for Inhibition Studies of Rec. Human Tissue Transglutaminase (rhTG2)
250 μg lyophilized His-tagged recombinant human tissue transglutaminase (His6-rhTG2, Zedira product 1022) is reconstituted in H2O (volume depends on original volume before lyophilization) resulting in a buffer containing 10 mM Tris-HCl, 150 mM NaCl, 1 mM EDTA, 5 mM DTT, 189 mg/ml maltodextrin, pH=8.1. The rhTG2 stock solution is diluted in buffer (50 mM Tris-HCl, 7.5 mM CaCl2, 150 mM NaCl, pH=7.4) to give a working solution of 100 U/ml (based on the amine-incorporation activity measured using T036, described below).
A 10 mM inhibitor stock solution is prepared in DMSO, and from this stock solution a serial 1:2-fold dilution series is prepared, also in DMSO. Each of these initial dilutions is subsequently diluted 1:50-fold with buffer (50 mM Tris-HCl, 7.5 mM CaCl2, 150 mM NaCl, pH=7.4) to yield the final working dilutions containing 2% (v/v) DMSO. 15 μl of inhibitor working dilution are added per well of a 96 well microtiter plate. As control, 15 μl of a 2% (v/v) DMSO solution prepared using the buffer mentioned above are added per well.
600 μl of His6-rhTG2 working solution are added to 11.4 ml assay buffer (50 mM Iris-HCl, 7.5 mM CaCl2, 150 mM NaCl, 5 mM DTI, 13.4 mM glycine methylester, 50 μM Abz-APE(CAD-DNP)QEA-OH, (Zedira product A102; patent No.: EP 1781807B1), pH=7.4). From this master-mix solution, 285 μl are added per well containing the inhibitor. Increase in fluorescence is measured using λex=313 nm and λem=418 nm at 37° C. for 20 min. A slope of the increase in fluorescence between 10 and 20 min is calculated for determination of the IC50 value (inhibitor concentration at which 50% of the initial TG2 activity is blocked).
Analysis of enzymatic activity is performed by calculation of the slope of an increase in fluorescence intensity. IC50 values are calculated by plotting the enzymatic activity (as percentage from control containing 2% DMSO instead of inhibitor) against the inhibitor concentration. IC50 is defined as the inhibitor concentration blocking 50%) of initial enzyme activity.

| SMILES | IC50 |
| --- | --- |
| CCC(CC)CNC(=O)Cn1cc(Cl)cc(NC(=O)[C@H](CCC(=O)C(=O)NC)NC(=O)c2cncn2C)c1=O [Compound E45, (S)—N1-(5-chloro-1-(2-(2-ethylbutylamino)-2-oxoethyl)-2-oxo-1,2-dihydropyridin-yl)-N6-methyl-2-(1-methyl-1H-imidazole-5-carboxamido)-5-oxohexanediamide] | 75 nM |
| CNC(=O)C(=O)CC[C@H](NC(=O)c1cncn1C)C(=O)Nc1cccn(CC(=O)NCN(C)C)c1=O [Compound E55, (S)-N1-(1-(2-((dimethylamino)methylamino)-2-oxoethyl)-2-oxo-1,2-dihydropyridin-3-yl)-N6-methyl-2-(1-methyl-1H-imidazole-5-carboxamido)-5-oxohexanediamide] | 200 nM |
| COC(=O)[C@H](CC(C)C)NC(=O)[C@@H]1CCCN1C(=O)[C@@H](NC(=O)[C@H](CCC(=O)C(=O)NC1CC1)NC(=O)c1ccccc1)C(C)C [Compound E24, (S)-methyl 2-((S)-1-((S)-2-((S)-2-benzamido-6-(cyclopropylamino)-5,6-dioxonexan-amido)-3-methylbutanoyl)pyrrolidine-2-carboxamido)-4-methylpentanoate] | 550 nM |
| CCCCCNC(=O)C(=O)CC[C@H](NC(=O)c1cncn1C)C(=O)Nc1cccn(CC(=O)NCC(CC)CC)c1=O [Compound E18, (S)—N1-(1-(2-(2-ethylbutylamino)-2-oxoethyl)-2-oxo-1,2-dihydropyridin-3-yl)-2-(1-methyl-1H-imidazole-5-carboxamido)-5-oxo-N6-pentylnexanediamide] | 125 nM |
| CNC(=O)C(=O)CC[C@H](NC(=O)OC(C)C)C(=O)N[C@@H](CCCNC(=N)N)C(=O)NC(C)(C)C(=O)N1C[C@H](O)C[C@H]1C(N)=O [Compound E84, isopropyl (S)-1-((S)-1-(1-((2S,4R)-2-carbamoyl-4-hydroxypyrrolidin-1-yl)-2-methyl-1-oxopropan-2-ylamino)-5-guanidino-1-oxopentan-2-ylamino)-6-(methylamino)-1,5,6-trioxohexan-2-ylcarbamate] (Isopropoxycarbonyl-[Nle(5,6-dioxo,6-NHMe)]R[Aib][Hyp]-NH2) | 960 nM |
| CCS(=O)(=O)NC(=O)Cn1cccc(NC(=O)[C@H](CCC(=O)C(=O)NC)NC(=O)c2cncn2C)c1=O [Compound E56, (S)—N1-(1-(2-(ethylsulfonamido)-2-oxoethyl)-2-oxo-1,2-dihydropyridin-3-yl)-N6-methyl-2-(1-methyl-1H-imidazole-5-carboxamido)-5-oxohexanediamide] | 850 nM |
| CCC(CC)CNC(=O)Cn1cccc(NC(=O)[C@H](CCC(=O)C(=O)NCOC)NC(=O)c2cncn2C)c1=O [Compound E39, (S)—N1-(1-(2-(2-ethylbutylamino)-2-oxoethyl)-2-oxo-1,2-dihydropyridin-3-yl)-N6-(methoxymethyl)-2-(1-methyl-1H-imidazole-5-carboxamido)-5-oxohexanediamide] | 135 nM |
| CCC(CC)CNC(=O)Cn1cccc(NC(=O)[C@H](CCC(=O)C(=O)C2CC2)NC(=O)c2cncn2C)c1=O [Compound E75, (S)—N-(6-cyclopropyl-1-(1-(2-(2-ethylbutylamino)-2-oxoethyl)-2-oxo-1,2-dihydropyridin-3-ylamino)-1,5,6-trioxohexan-2-yl)-1-methyl-1H-imidazole-5-carboxamide] | 135 nM |
| CCC(CC)CNC(=O)Cn1cccc(NC(=O)[C@H](CCC(=O)C(N)=O)NC(=O)c2cc([N+](=O)[O-])ccc2C)c1=O [Compound E13] | 700 nM |
| CCC(CC)CNC(=O)Cn1cccc(NC(=O)[C@H](CCC(=O)C(N)=O)NC(=O)c2scnc2C)c1=O [Compound E14, (S)—N1-(1-(2-(2-ethylbutylamino)-2-oxoethyl)-2-oxo-1,2-dihydropyridin-3-yl)-2-(4-methylthiazole-5-carboxamido)-5-oxohexanediamide] | 250 nM |
| CCOC(=O)Cn1cccc(NC(=O)[C@H](CCC(=O)C(=O)NC)NC(=O)c2cncn2C)c1=O [Compound E52, (S)-ethyl 2-(3-(2-(1-methyl-1H-imidazole-5-carboxamido)-6-(methylamino)-5,6-dioxohexanamido)-2-oxopyridin-1(2H)-yl)acetate] | 500 nM |

Now from value to compound:

| IC50 | SMILES |
| --- | --- |
| 600 nM | CCC(CC)CNC(=O)Cn1cccc(NC(=O)[C@H](CCC(=O)C(=O)NCc2ccccc2)NC(=O)c2cncn2C)c1=O [Compound E20, (S)—N1-benzyl-N6-(1-(2-(2-ethylbutylamino)-2-oxoethyl)-2-oxo-1,2-dihydropyridin-3-yl)-5-(1-methyl-1H-imidazole-5-carboxamido)-2-oxonexanediamide] |
| 550 nM | CCC(CC)CNC(=O)Cn1cccc(NC(=O)[C@H](CCC(=O)C(=O)c2ccccc2)NC(=O)c2cncn2C)c1=O [Compound E76, (S)—N-(1-(1-(2-(2-ethylbutylamino)-2-oxoethyl)-2-oxo-1,2-dihydropyridin-3-ylamino)-1,5,6-trioxo-6-phenylhexan-2-yl)-1-methyl-1H-imidazole-5-carboxamide] |
| 1100 nM | CCC(CC)CNC(=O)Cn1cccc(NC(=O)[C@H](CCC(=O)C(=O)NC2CC2)NC(=O)c2ccccc2)c1=O [Compound E23, (S)-2-benzamido-N6-cyclopropyl-N1-(1-(2-(2-ethylbutylamino)-2-oxoethyl)-2-oxo-1,2-dihydropyridin-3-yl)-5-oxonexanediamide] |
| 70 nM | CCC(CC)CNC(=O)Cn1cccc(NC(=O)[C@H](CCC(=O)C(=O)NC)NC(=O)c2cnco2)c1=O [Compound E62, (S)—N1-(1-(2-(2-ethylbutylamino)-2-oxoethyl)-2-oxo-1,2-dihydropyridin-3-yl)-N6-methyl-2-(oxazole-5-carboxamido)-5-oxohexanediamide] |
| 6000 nM | CCC(CC)CNC(=O)Cn1cccc(NC(=O)[C@H](CCCC(=O)C(=O)NC)NC(=O)c2cncn2C)c1=O [Compound E71, (S)—N1-(1-(2-(2-ethylbutylamino)-2-oxoethyl)-2-oxo-1,2-dihydropyridin-3-yl)-N7-methyl-2-(1-methyl-1H-imidazole-5-carboxamido)-6-oxoheptanediamide] |
| 625 nM | CCC(CC)CNC(=O)Cn1cccc(NC(=O)[C@H](CCC(=O)C(=O)NC)NC(=O)CCC(=O)O)c1=O [Compound E59, (S)-4-(1-(1-(2-(2-ethylbutylamino)-2-oxoethyl)-2-oxo-1,2-dihydropyridin-3-ylamino)-6-(methylamino)-1,5,6-trioxohexan-2-ylamino)-4-oxobutanoic acid] |
| 350 nM | CCC(CC)CNC(=O)Cn1cccc(NC(=O)[C@H](CCC(=O)C(=O)NC2CC2)NC(=O)c2cncn2C)c1=O [Compound E19, (S)—N1-cyclopropyl-N6-(1-(2-(2-ethylbutylamino)-2-oxoethyl)-2-oxo-1,2-dihydropyridin-3-yl)-5-(1-methyl-1H-imidazole-5-carboxamido)-2-oxonexanediamide] |
| 275 nM | CCC(CC)CNC(=O)Cn1cccc(NC(=O)[C@H](CCC(=O)C(=O)NC)NC(=O)Nc2ccccc2)c1=O [Compound E69, (S)—N1-(1-(2-(2-ethylbutylamino)-2-oxoethyl)-2-oxo-1,2-dihydropyridin-3-yl)-N6-methyl-5-oxo-2-(3-phenylureido)hexanediamide] |
| 200 nM | CCC(CC)CNC(=O)Cn1cccc(NC(=O)[C@H](CCC(=O)C(=O)OC)NC(=O)c2cncn2C)c1=O [Compound E77, (S)-methyl 6-(1-(2-(2-ethylbutylamino)-2-oxoethyl)-2-oxo-1,2-dihydropyridin-3-ylamino)-5-(1-methyl-1H-imidazole-5-carboxamido)-2,6-dioxohexanoate] |
